Measured values published in ChEMBL document CHEMBL5518167, “Degradation of Polo-like Kinase 1 by the Novel Poly-Arginine N-Degron Pathway PROTAC Regulates Tumor Growth in Nonsmall Cell Lung Cancer” (J Med Chem, 2024).
The source made the active and inactive calls. The rule behind the calls is not given here. Where a SMILES comes first, the peptide text is derived from it.

Experiments:
[1] = biological target: Serine/threonine-protein kinase PLK1 (Homo sapiens, UniProt P53350); assay: Binding affinity to PLK1 PBD (unknown origin) by ITC method
Sequence of Serine/threonine-protein kinase PLK1 (P53350 whole entry): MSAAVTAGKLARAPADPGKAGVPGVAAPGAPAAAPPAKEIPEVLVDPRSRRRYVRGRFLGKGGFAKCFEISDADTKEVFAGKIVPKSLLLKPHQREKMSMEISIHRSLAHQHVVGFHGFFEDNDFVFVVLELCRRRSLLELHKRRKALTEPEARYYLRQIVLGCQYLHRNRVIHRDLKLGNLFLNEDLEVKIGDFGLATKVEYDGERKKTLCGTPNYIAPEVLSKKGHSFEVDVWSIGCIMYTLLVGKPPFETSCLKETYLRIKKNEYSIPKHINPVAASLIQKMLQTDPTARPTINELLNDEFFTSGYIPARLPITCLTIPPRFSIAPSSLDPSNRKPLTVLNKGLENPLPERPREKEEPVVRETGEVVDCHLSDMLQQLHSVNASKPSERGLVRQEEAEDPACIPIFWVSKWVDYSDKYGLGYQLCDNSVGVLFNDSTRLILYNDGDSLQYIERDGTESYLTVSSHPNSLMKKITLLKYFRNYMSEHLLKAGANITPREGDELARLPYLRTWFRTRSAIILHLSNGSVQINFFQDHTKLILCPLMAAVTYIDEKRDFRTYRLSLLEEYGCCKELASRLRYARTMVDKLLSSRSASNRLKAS

UBR/PLK1 (Homo sapiens) [2] = assay: Protac activity at UBR/PLK1 in human HeLa cells assessed as PLK1 degradation at 100 uM incubated for 24 hrs by immunoblotting analysis
UBR/PLK1 (Homo sapiens) [3] = assay: Protac activity at UBR/PLK1 in human HeLa cells assessed as PLK1 degradation at 50 uM by immunoblotting analysis; settings: time 2-48 hrs, TDE = time-dependent effect
UBR/PLK1 (Homo sapiens) [4] = assay: Protac activity at UBR/PLK1 in human HeLa cells assessed as PLK1 degradation at 50 uM after 24 to 48 hrs by immunoblotting analysis; settings: time 24-48 hrs
UBR/PLK1 (Homo sapiens) [5] = assay: Protac activity at UBR/PLK1 in human HeLa cells assessed as PLK1 degradation at 50 uM preincubated for 24 hrs followed by MG132 addition for 8 hrs by immunoblotting analysis; settings: time 32.0 hrs
[6] = biological target: E3 ubiquitin-protein ligase UBR2 (Homo sapiens) (UniProt Q8IWV8); assay: Binding affinity to UBR2 (unknown origin) expressed in HEK293T cells incubated for 3 hrs by pull-down assay; format: cell-based
Sequence of E3 ubiquitin-protein ligase UBR2 (Homo sapiens) (Q8IWV8 whole entry): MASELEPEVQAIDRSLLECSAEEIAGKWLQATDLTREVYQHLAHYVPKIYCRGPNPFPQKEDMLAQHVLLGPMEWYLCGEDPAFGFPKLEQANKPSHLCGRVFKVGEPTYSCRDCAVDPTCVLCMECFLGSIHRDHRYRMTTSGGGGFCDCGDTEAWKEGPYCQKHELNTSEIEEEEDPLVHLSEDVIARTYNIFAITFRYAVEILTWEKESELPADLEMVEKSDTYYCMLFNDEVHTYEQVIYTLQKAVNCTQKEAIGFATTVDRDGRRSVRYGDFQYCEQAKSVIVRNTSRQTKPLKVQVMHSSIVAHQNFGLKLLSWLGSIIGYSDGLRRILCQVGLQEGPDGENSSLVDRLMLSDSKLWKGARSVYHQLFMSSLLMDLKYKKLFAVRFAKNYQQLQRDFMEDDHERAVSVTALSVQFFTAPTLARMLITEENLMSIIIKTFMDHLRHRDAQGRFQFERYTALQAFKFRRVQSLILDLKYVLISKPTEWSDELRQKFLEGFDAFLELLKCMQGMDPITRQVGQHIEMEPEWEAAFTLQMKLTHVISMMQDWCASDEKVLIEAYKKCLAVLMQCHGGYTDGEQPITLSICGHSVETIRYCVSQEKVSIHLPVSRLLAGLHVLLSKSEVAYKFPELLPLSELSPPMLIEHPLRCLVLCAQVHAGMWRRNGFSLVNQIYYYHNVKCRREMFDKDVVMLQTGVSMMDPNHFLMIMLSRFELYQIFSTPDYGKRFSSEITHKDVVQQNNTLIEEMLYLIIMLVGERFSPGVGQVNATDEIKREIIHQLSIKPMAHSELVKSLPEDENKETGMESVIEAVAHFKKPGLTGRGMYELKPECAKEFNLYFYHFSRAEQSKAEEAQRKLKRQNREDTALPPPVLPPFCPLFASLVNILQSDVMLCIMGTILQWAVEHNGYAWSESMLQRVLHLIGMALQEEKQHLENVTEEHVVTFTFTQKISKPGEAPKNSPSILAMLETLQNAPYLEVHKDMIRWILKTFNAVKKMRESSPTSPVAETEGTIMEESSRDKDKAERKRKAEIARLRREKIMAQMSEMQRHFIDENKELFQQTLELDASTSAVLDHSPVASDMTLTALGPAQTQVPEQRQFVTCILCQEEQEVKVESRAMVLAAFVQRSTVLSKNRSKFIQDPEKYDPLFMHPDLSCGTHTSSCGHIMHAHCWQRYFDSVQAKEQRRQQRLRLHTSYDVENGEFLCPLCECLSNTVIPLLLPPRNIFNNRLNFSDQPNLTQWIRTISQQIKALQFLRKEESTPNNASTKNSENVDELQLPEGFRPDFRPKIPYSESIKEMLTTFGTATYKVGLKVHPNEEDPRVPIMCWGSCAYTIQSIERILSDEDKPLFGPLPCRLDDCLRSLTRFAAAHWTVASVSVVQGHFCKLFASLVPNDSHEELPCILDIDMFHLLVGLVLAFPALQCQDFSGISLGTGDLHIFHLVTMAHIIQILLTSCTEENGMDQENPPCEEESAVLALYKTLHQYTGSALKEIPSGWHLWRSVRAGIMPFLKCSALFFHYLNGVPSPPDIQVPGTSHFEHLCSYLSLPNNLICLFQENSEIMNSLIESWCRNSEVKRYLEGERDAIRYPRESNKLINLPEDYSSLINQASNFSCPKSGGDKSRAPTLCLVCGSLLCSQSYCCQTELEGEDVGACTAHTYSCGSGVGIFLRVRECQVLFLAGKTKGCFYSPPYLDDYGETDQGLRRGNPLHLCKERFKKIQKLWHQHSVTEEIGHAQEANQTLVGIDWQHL

[7] = biological target: E3 ubiquitin-protein ligase UBR1 (Homo sapiens) (UniProt Q8IWV7); assay: Binding affinity to UBR1 (unknown origin) expressed in HEK293T cells incubated for 3 hrs by pull-down assay; format: cell-based
Sequence of E3 ubiquitin-protein ligase UBR1 (Homo sapiens) (Q8IWV7 whole entry): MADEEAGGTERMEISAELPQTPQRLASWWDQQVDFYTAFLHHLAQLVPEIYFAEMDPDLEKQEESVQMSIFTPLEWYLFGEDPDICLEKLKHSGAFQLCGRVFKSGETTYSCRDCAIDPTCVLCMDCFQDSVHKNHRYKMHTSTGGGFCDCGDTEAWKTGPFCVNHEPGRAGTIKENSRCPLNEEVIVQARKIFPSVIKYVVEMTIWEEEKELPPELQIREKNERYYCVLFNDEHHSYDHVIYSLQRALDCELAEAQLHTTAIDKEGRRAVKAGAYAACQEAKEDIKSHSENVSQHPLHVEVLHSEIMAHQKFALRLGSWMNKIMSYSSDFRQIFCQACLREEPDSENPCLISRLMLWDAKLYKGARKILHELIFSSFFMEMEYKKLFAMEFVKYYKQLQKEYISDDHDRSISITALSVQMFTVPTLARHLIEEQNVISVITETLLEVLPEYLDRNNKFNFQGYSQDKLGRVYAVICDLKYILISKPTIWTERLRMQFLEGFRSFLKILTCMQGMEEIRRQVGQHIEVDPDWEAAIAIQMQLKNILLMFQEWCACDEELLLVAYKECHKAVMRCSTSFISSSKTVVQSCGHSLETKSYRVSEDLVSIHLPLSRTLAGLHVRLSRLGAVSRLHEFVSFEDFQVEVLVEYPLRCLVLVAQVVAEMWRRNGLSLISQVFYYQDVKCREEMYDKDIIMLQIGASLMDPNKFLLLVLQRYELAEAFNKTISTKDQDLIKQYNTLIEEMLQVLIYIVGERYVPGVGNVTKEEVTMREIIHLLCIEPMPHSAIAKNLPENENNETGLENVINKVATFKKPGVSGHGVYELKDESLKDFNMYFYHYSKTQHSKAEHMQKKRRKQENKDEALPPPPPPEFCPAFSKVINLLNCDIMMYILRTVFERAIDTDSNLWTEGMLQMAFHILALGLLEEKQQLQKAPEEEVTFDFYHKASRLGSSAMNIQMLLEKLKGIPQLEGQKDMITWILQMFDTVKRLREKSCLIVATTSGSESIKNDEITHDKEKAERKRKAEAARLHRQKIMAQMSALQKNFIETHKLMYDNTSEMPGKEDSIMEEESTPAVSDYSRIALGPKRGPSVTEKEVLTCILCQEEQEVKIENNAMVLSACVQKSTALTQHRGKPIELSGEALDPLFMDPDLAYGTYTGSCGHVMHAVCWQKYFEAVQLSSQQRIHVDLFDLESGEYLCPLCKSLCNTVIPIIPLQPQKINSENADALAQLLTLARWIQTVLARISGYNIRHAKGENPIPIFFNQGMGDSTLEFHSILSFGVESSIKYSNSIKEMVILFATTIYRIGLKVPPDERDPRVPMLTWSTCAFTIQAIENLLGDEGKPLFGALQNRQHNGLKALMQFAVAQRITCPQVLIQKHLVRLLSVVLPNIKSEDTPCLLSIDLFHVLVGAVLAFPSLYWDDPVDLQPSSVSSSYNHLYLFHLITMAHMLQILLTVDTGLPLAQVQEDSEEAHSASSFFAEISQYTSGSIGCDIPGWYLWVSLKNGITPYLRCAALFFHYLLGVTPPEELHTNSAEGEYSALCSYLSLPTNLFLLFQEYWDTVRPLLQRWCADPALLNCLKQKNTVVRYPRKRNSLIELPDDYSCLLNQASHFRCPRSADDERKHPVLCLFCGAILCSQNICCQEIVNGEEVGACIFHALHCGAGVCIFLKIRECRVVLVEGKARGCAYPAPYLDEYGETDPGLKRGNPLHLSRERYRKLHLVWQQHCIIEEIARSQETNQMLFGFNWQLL

UBR/PLK1 (Homo sapiens) [8] = assay: Protac activity at UBR/PLK1 in human HeLa cells assessed as PLK1 degradation at 50 uM incubated for 24 hrs by immunoblotting analysis
UBR/PLK1 (Homo sapiens) [9] = assay: Protac activity at UBR/PLK1 in human HeLa cells assessed as PLK1 degradation incubated for 24 hrs by immunoblotting analysis; settings: dose 25-100 µM
UBR/PLK1 (Homo sapiens) [10] = assay: Protac activity at UBR/PLK1 in human HeLa cells assessed as PLK1 degradation at 75 uM incubated for 24 hrs by immunoblotting analysis
HeLa [11] = assay: Cytotoxicity against human HeLa cells assessed as change in morphology at 18 uM incubated for 24 hrs by phase contrast microscopic assay; format: functional, cell-based
NCI-H1975 [12] = assay: Cytotoxicity against human NCI-H1975 cells at 0.8 to 50 uM incubated for 24 hrs by MTT assay; format: functional, cell-based; settings: dose 0.8-50 µM
A549 [13] = assay: Induction of cell cycle arrest in human A549 cells at 10 uM incubated for 24 hrs by PI staining based flow cytometry analysis; format: functional
A549 [14] = assay: Cytotoxicity against human A549 cells at 0.8 to 50 uM incubated for 24 hrs by MTT assay; format: functional, cell-based; settings: dose 0.8-50 µM
NCI-H1975 [15] = assay: Induction of cell cycle arrest in human NCI-H1975 cells at 10 uM incubated for 24 hrs by PI staining based flow cytometry analysis; format: functional
PC-9 [16] = assay: Induction of cell cycle arrest in human PC-9 cells at 10 uM incubated for 24 hrs by PI staining based flow cytometry analysis; format: functional
A549 [17] = assay: Cytotoxicity against human A549 cells assessed as change in morphology at 25 uM incubated for 24 hrs by phase contrast microscopic assay; format: functional, cell-based
PC-9 [18] = assay: Cytotoxicity against human PC-9 cells assessed as change in morphology at 25 uM incubated for 24 hrs by phase contrast microscopic assay; format: functional, cell-based
PC-9 [19] = assay: Cytotoxicity against human PC-9 cells at 0.8 to 50 uM incubated for 24 hrs by MTT assay; format: functional, cell-based; settings: dose 0.8-50 µM
NCI-H1975 [20] = assay: Cytotoxicity against human NCI-H1975 cells assessed as change in morphology at 25 uM incubated for 24 hrs by phase contrast microscopic assay; format: functional, cell-based
HeLa [21] = assay: Induction of cell cycle arrest in human HeLa cells at 10 uM incubated for 24 hrs by PI staining based flow cytometry analysis; format: functional
[22] = In vivo induction of PLK1 degradation in nude mouse xenografted with human NCI-H1975 cells assessed as reduction in PLK1 protein expression at 5 mg/kg, iv administered for every 3 days by Western blotting analysis; format: functional; design: scale not given: the % may be the effect or the level left

## CC(C)C[C@H](NC(=O)[C@@H]1CCCN1C(=O)CCCCCNC(=O)[C@H](CCCNC(=N)N)NC(=O)[C@H](CCCNC(=N)N)NC(=O)[C@H](CCCNC(=N)N)NC(=O)[C@H](CCCNC(=N)N)NC(=O)[C@H](CCCNC(=N)N)NC(=O)[C@H](CCCNC(=N)N)NC(=O)[C@H](CCCNC(=N)N)NC(=O)[C@H](CCCNC(=N)N)NC(=O)[C@H](CCCNC(=N)N)NC(=O)[C@H](CCCNC(=N)N)NC(=O)[C@H](CCCNC(=N)N)NC(=O)[C@@H](N)CCCNC(=N)N)C(=O)N[C@@H](Cc1cnc[nH]1)C(=O)N[C@@H](CO)C(=O)N[C@H](C(N)=O)[C@@H](C)OP(=O)(O)O
[1]
  Kd: 2.2 µM

## CC(C)C[C@H](NC(=O)[C@H]1CCCN1C(=O)CCCCCNC(=O)[C@H](CCCNC(=N)N)NC(=O)[C@H](CCCNC(=N)N)NC(=O)[C@H](CCCNC(=N)N)NC(=O)[C@H](CCCNC(=N)N)NC(=O)[C@H](CCCNC(=N)N)NC(=O)[C@H](CCCNC(=N)N)NC(=O)[C@H](CCCNC(=N)N)NC(=O)[C@H](CCCNC(=N)N)NC(=O)[C@H](CCCNC(=N)N)NC(=O)[C@H](CCCNC(=N)N)NC(=O)[C@H](CCCNC(=N)N)NC(=O)[C@@H](N)CCCNC(=N)N)C(=O)N[C@@H](Cc1cnc[nH]1)C(=O)N[C@@H](CO)C(=O)N[C@H](C(N)=O)[C@@H](C)OP(=O)(O)O
UBR/PLK1 (Homo sapiens) [2]
  Activity: 70%
UBR/PLK1 (Homo sapiens) [3]
  Activity: Tde
UBR/PLK1 (Homo sapiens) [4]
  Activity: 90%
UBR/PLK1 (Homo sapiens) [5]
  Activity: inactive
[6]
  Activity: Active
[7]
  Activity: Active
UBR/PLK1 (Homo sapiens) [8]
  Activity: 60%
UBR/PLK1 (Homo sapiens) [9]
  Activity: Dose-Dependent Effect
UBR/PLK1 (Homo sapiens) [10]
  Activity: 70%

## N=C(N)NCCC[C@H](NC(=O)[C@H](CCCNC(=N)N)NC(=O)[C@H](CCCNC(=N)N)NC(=O)[C@H](CCCNC(=N)N)NC(=O)[C@H](CCCNC(=N)N)NC(=O)[C@H](CCCNC(=N)N)NC(=O)[C@H](CCCNC(=N)N)NC(=O)[C@H](CCCNC(=N)N)NC(=O)[C@H](CCCNC(=N)N)NC(=O)[C@H](CCCNC(=N)N)NC(=O)[C@H](CCCNC(=N)N)NC(=O)[C@@H](N)CCCNC(=N)N)C(N)=O
HeLa [11]
  Activity: inactive
NCI-H1975 [12]
  Activity: inactive
A549 [13]
  Activity: inactive
A549 [14]
  Activity: inactive
NCI-H1975 [15]
  Activity: inactive
PC-9 [16]
  Activity: inactive
A549 [17]
  Activity: inactive
PC-9 [18]
  Activity: inactive
PC-9 [19]
  Activity: inactive
NCI-H1975 [20]
  Activity: inactive
HeLa [21]
  Activity: inactive

## C[C@@H](OP(=O)(O)O)[C@@H]1NC(=O)[C@H](Cc2cncn2CCCCCCCCc2ccccc2)NC(=O)[C@@H](N)CCC(=O)NCCCC[C@@H](C(N)=O)NC1=O (HELM PEPTIDE1{E.[O=C([C@H](Cc1cncn1CCCCCCCCc1ccccc1)N[*:1])[*:2]].[C[C@@H](OP(=O)(O)O)[C@H](N[*:1])C(=O)[*:2]].K.[am]}$PEPTIDE1,PEPTIDE1,1:R3-4:R3$$$V2.0)
HeLa [11]
  Activity: inactive
NCI-H1975 [12]
  Activity: inactive
A549 [14]
  Activity: inactive
A549 [17]
  Activity: inactive
PC-9 [18]
  Activity: inactive
PC-9 [19]
  Activity: inactive
NCI-H1975 [20]
  Activity: inactive

## C=CC(=O)Nc1cc(Nc2nccc(-c3cn(C)c4ccccc34)n2)c(OC)cc1N(C)CCN(C)C [OSIMERTINIB]
[22]
  Activity: >60%
